Results as given in EP0652008A1 (priority 1993, dated 1995).
Like-named read-outs stand apart in the source and are kept apart here.

What was measured:
Francisella tularensis [1] = assay type: in vivo, BALB/c mice; settings: for % SURVIVALS AT DAY 14 POST INFECTION: single dose 1 mg per mouse
Francisella tularensis [2] = assay type: in vivo, BALB/c mice; settings: for % SURVIVALS AT DAY 14 POST INFECTION: single dose
[3] = patients taking both ciprofloxacin and theophylline; many to the toxic range; cited from earlier work
[4] = in vivo; cited from earlier work

Row | SMILES | % SURVIVALS AT DAY 14 POST INFECTION (Francisella tularensis [1]; INTRANSAL pretreatment and infection, 1 day before infection) [%] | % SURVIVALS AT DAY 14 POST INFECTION (Francisella tularensis [1]; INTRANSAL pretreatment and infection, 2 days before infection) [%] | % SURVIVALS AT DAY 14 POST INFECTION (Francisella tularensis [1]; INTRANSAL pretreatment and infection, 3 days before infection) [%] | % SURVIVALS AT DAY 14 POST INFECTION (Francisella tularensis [1]; INTRANSAL pretreatment and infection, 7 days before infection) [%] | % SURVIVALS AT DAY 14 POST INFECTION (Francisella tularensis [1]; INTRAVENOUS pretreatment and infection, 1 day before infection) [%] | % SURVIVALS AT DAY 14 POST INFECTION (Francisella tularensis [1]; INTRAVENOUS pretreatment and infection, 2 days before infection) [%] | % SURVIVALS AT DAY 14 POST INFECTION (Francisella tularensis [1]; INTRAVENOUS pretreatment and infection, 3 days before infection) [%] | % SURVIVALS AT DAY 14 POST INFECTION (Francisella tularensis [1]; INTRAVENOUS pretreatment and infection, 7 days before infection) [%] | protection by single dose before infection (in words) (Francisella tularensis [1]; single dose before infection with 10 LD50) | % SURVIVALS AT DAY 14 POST INFECTION (Francisella tularensis [2]; INTRANSAL infection and treatment, 1 day after infection) [%] | % SURVIVALS AT DAY 14 POST INFECTION (Francisella tularensis [2]; INTRANSAL infection and treatment, 2 days after infection) [%] | % SURVIVALS AT DAY 14 POST INFECTION (Francisella tularensis [2]; INTRANSAL infection and treatment, 3 days after infection) [%] | % SURVIVALS AT DAY 14 POST INFECTION (Francisella tularensis [2]; INTRANSAL infection and treatment, 7 days after infection) [%] | % SURVIVALS AT DAY 14 POST INFECTION (Francisella tularensis [2]; INTRAVENOUS infection and treatment, 1 day after infection) [%] | % SURVIVALS AT DAY 14 POST INFECTION (Francisella tularensis [2]; INTRAVENOUS infection and treatment, 2 days after infection) [%] | % SURVIVALS AT DAY 14 POST INFECTION (Francisella tularensis [2]; INTRAVENOUS infection and treatment, 3 days after infection) [%] | % SURVIVALS AT DAY 14 POST INFECTION (Francisella tularensis [2]; INTRAVENOUS infection and treatment, 7 days after infection) [%] | efficacy in the treatment of infected mice (in words) (Francisella tularensis [2]; single dose at day 1, 2, 3 and 7 post infection) | patients who developed increases of theophylline [3] | bioavailability rates [4]
1 | O=C(O)c1cn(C2CC2)c2cc(N3CCNCC3)c(F)cc2c1=O [Ciprofloxacin, ciprofloxacin] | 0 | 0 | 0 | 12 | 8 | 0 | 12 | 0 | succumbed to 10 LD₅₀ of tularemia in a manner similar to the control untreated mice | 50 | 0 | 25 | 0 | 0 | 25 | 0 | 12 | totally ineffective | 20 of 33 | 
2 | CC1(C)S[C@@H]2[C@H](NC(=O)Cc3ccccc3)C(=O)N2[C@H]1C(=O)O [penicillin G] |  |  |  |  |  |  |  |  |  |  |  |  |  |  |  |  |  |  |  | 45-50%
